We go through five compounds from US12116359B2, “EBNA1 inhibitor crystalline forms, and methods of preparing and using same” (THE WISTAR INSTITUTE, priority 2018, dated 2024).

Entries after “also recorded” stand apart in the source; their conditions may differ. Where two headings read alike, the source gives them in different places.

Common to all, as to format: physicochemical
A short description of data set [1]: Preliminary solubility assessment in solvents. To be noted: RT. The procedure: Amorphous (I) free acid (post washing, ca. 20 mg) was dissolved or suspended in a range of solvent systems (using 10 or 20 volumes) at RT. Solutions were placed in a fridge at 4° C. overnight. If no solid was obtained, the solution was then allowed to evaporate at RT. Suspensions were matured between RT-50° C. heat-cool cycles (8 h per cycle) for up to 7 days. Solids were analyzed by XRPD.

A short description of data set [2]: Storage stability of solid forms at elevated temperature/humidity (XRPD, HPLC purity). The procedure:
Purity analysis was performed on an Agilent HP1100 series system equipped with a diode array detector and using ChemStation software vB.04.03 using the method detailed in Table 1.
Amorphous (I) free acid was stored at 40° C./75% RH (open vial), 25° C./97% RH (open vial) and 60° C. (closed vial, ambient humidity) for 8 weeks.
Characterization by XRPD, ^1H NMR, TGA, DSC and storage at 40° C./75% RH for one week was carried out. Details are found in Table 10.

A short description of data set [3]: Gravimetric vapour sorption (GVS). To be noted: for Hygroscopicity: GVS, 0-90% RH. On the procedure:
Sorption isotherms were obtained using a SMS DVS Intrinsic moisture sorption analyzer, controlled by DVS Intrinsic Control software. The sample temperature was maintained at 25° C. by instrument controls. The humidity was controlled by mixing streams of dry and wet nitrogen, with a total flow rate of 200 ml/min. The relative humidity was measured by a calibrated Rotronic probe (dynamic range of 1.0-100% RH), located near the sample. The weight change (mass relaxation) of the sample as a function of % RH was constantly monitored by the microbalance (accuracy ±0.005 mg). Typically 5-20 mg of sample was placed in a tared mesh stainless steel basket under ambient conditions. The sample was loaded and unloaded at 40% RH and 25° C. (typical room conditions). A moisture sorption isotherm was performed as outlined below (2 scans giving 1 complete cycle). The standard isotherm was performed at 25° C. at 10% RH intervals over a 0-90% RH range. Data analysis was carried out using Microsoft Excel. The sample was recovered after completion of the isotherm and re-analyzed by XRPD.

The nature of data set [4]: Storage stability of solid forms at elevated temperature/humidity (XRPD, HPLC purity). Particulars: 4 weeks.
Data set [5] in a line: Further stability experiments on crystalline forms (vacuum drying, grinding, storage). On the procedure: Further experiments were carried out, involving heating, vacuum drying and/or grinding the materials in order to assess the stability of the solvated materials and the potential crystallization of an anhydrous form by desolvation.

Take `O=C(O)c1cccc(C#Cc2ccc(COC3CCOCC3)cc2)c1-c1ccc2cc[nH]c2c1` [Amorphous (I) free acid, 2-(1H-Indol-6-yl)-3-[4-(tetrahydro-pyran-4-yloxymethyl)-phenylethynyl]-benzoic acid]: the solubility (commonly the concentration that dissolves in the medium under given conditions) in data set [1] (1,4-dioxane, organic solvent or mixture, thermodynamic from solid, 1,4-Dioxane, 10 vol, read-out: Solubility assessment 10 vol) was above 100 mg/mL; in data set [1] (2-propanol, organic solvent or mixture, thermodynamic from solid, 2-Propanol, 10 vol, read-out: Solubility assessment 10 vol), above 100 mg/mL; in data set [1] (acetone, organic solvent or mixture, thermodynamic from solid, Acetone, 10 vol, read-out: Solubility assessment 10 vol) it was above 100 mg/mL; in data set [1] (acetone/5% water, organic solvent or mixture, thermodynamic from solid, Acetone/5% water, 10 vol, read-out: Solubility assessment 10 vol), above 100 mg/mL; in data set [1] (acetonitrile, organic solvent or mixture, thermodynamic from solid, Acetonitrile, 10 vol, read-out: Solubility assessment 10 vol), above 100 mg/mL; in data set [1] (anisole, organic solvent or mixture, thermodynamic from solid, Anisole, 10 vol, read-out: Solubility assessment 10 vol), above 100 mg/mL. The solubility in data set [1] (dichloromethane, organic solvent or mixture, thermodynamic from solid, Dichloromethane, 10 vol, read-out: Solubility assessment 10 vol) was above 100 mg/mL; in data set [1] (ethanol, organic solvent or mixture, thermodynamic from solid, Ethanol, 10 vol, read-out: Solubility assessment 10 vol) it was above 100 mg/mL; in data set [1] (ethanol/5% water, organic solvent or mixture, thermodynamic from solid, Ethanol/5% water, 10 vol, read-out: Solubility assessment 10 vol), above 100 mg/mL; in data set [1] (ethyl acetate, organic solvent or mixture, thermodynamic from solid, Ethyl Acetate, 10 vol, read-out: Solubility assessment 10 vol) it was above 100 mg/mL; in data set [1] (heptane, organic solvent or mixture, thermodynamic from solid, Heptane, 10 vol, read-out: Solubility assessment 10 vol), below 100 mg/mL; in data set [1] (heptane, organic solvent or mixture, thermodynamic from solid, Heptane, 20 vol, read-out: Solubility assessment 20 vol) it was below 50 mg/mL. For the same compound, the solubility in data set [1] (methanol, organic solvent or mixture, thermodynamic from solid, Methanol, 10 vol, read-out: Solubility assessment 10 vol) was above 100 mg/mL; in data set [1] (methylethyl ketone, organic solvent or mixture, thermodynamic from solid, Methylethyl Ketone, 10 vol, read-out: Solubility assessment 10 vol), above 100 mg/mL; in data set [1] (methylisobutyl ketone (printed Methylisoburyl Ketone), organic solvent or mixture, thermodynamic from solid, Methylisoburyl Ketone, 10 vol, read-out: Solubility assessment 10 vol) it was above 100 mg/mL; in data set [1] (nitromethane, organic solvent or mixture, thermodynamic from solid, Nitromethane, 10 vol, read-out: Solubility assessment 10 vol), below 100 mg/mL; in data set [1] (nitromethane, organic solvent or mixture, thermodynamic from solid, Nitromethane, 20 vol, read-out: Solubility assessment 20 vol), below 50 mg/mL; in data set [1] (tetrahydrofuran, organic solvent or mixture, thermodynamic from solid, Tetrahydrofuran, 10 vol, read-out: Solubility assessment 10 vol) it was above 100 mg/mL. In addition, the solubility is below 100 mg/mL in data set [1] (toluene, organic solvent or mixture, thermodynamic from solid, Toluene, 10 vol, read-out: Solubility assessment 10 vol); below 50 mg/mL in data set [1] (toluene, organic solvent or mixture, thermodynamic from solid, Toluene, 20 vol, read-out: Solubility assessment 20 vol); below 100 mg/mL in data set [1] (water, thermodynamic from solid, Water, 10 vol, read-out: Solubility assessment 10 vol); below 50 mg/mL in data set [1] (water, thermodynamic from solid, Water, 20 vol, read-out: Solubility assessment 20 vol). The “Decrease in chemical purity after storage” value in data set [2] (25° C./97% RH, 8 weeks) is recorded as 4.0 % (AUC); in data set [2] (40° C./75% RH, 8 weeks), 2.0 % (AUC); in data set [2] (60° C., 8 weeks), 1.1 % (AUC). Moreover, the “XRPD after storage at 25° C./97% RH for 8 weeks” value in data set [2] (25° C./97% RH, open vial, 8 weeks) is recorded as “completely amorphous trace by XRPD; also recorded: amorphous traces”. Also, the “Purity by HPLC after storage at 25° C./97% RH for 8 weeks” value in data set [2] (25° C./97% RH, open vial, 8 weeks, initial purity 95.5% (AUC)) is 91.5 % (AUC); in data set [2] (25° C./97% RH, open vial, 8 weeks, initial purity 95.5% (AUC), listed as (I) free acid amorphous material) it was “present. 91.5% (AUC) purity”. Further, the “XRPD after storage at 40° C./75% RH for 8 weeks” value in data set [2] (40° C./75% RH, open vial, 8 weeks) is “unchanged by XRPD; also recorded: amorphous traces”; in data set [2] (40° C./75% RH, open vial, 8 weeks, listed as (I) free acid amorphous material) it was “Unchanged by XRPD”. The “Purity by HPLC after storage at 40° C./75% RH for 8 weeks” value in data set [2] (40° C./75% RH, open vial, 8 weeks, initial purity 95.5% (AUC)) is given as 93.5 % (AUC). In addition, the “XRPD after storage at 60° C. for 8 weeks” value was “unchanged by XRPD; also recorded: amorphous traces” in data set [2] (60° C., closed vial, ambient humidity, 8 weeks) and “Unchanged by XRPD” in data set [2] (60° C., closed vial, ambient humidity, 8 weeks, listed as (I) free acid amorphous material). For the same compound, the “Purity by HPLC after storage at 60° C. for 8 weeks” value in data set [2] (60° C., closed vial, ambient humidity, 8 weeks, initial purity 95.5% (AUC)) is 94.4 % (AUC). Besides, the Hygroscopicity result in data set [3] and in data set [3] (listed as main batch) was “hygroscopic” throughout. In data set [3] (after 0-90% RH isotherm, listed as (I) free acid amorphous material), the “XRPD after GVS” value is reported as 0-90% RH with hysteresis. Unchanged by XRPD. Also, the GVS moisture uptake result in data set [3] (between 0-90% RH, 25° C.) is on record as “ca. 5.50%”. In data set [3] (between 0-90% RH, 25° C.), the “GVS reversible moisture uptake” value is given as 5.5% w/w reversible moisture uptake between.

Turning to `O=C(O)c1cccc(C#Cc2ccc(COC3CCOCC3)cc2)c1-c1ccc2cc[nH]c2c1` [Pattern 1, 2-(1H-Indol-6-yl)-3-[4-(tetrahydro-pyran-4-yloxymethyl)-phenylethynyl]-benzoic acid], the “XRPD after storage at 25° C./97% RH for 4 weeks” value in data set [4] (listed as Crystalline (I)) was “remained unchanged by XRPD”; in data set [4] (listed as crystalline batch) it was “remained unchanged by XRPD”; in data set [2] (25° C./97% RH, 4 weeks), “Unchanged by XRPD”. Moreover, the “XRPD after storage at 40° C./75% RH for 4 weeks” value was “remained unchanged by XRPD” in data set [4] (listed as Crystalline (I)); “remained unchanged by XRPD” in data set [4] (listed as crystalline batch); “Unchanged by XRPD” in data set [2] (40° C./75% RH, 4 weeks).

Regarding `O=C(O)c1cccc(C#Cc2ccc(COC3CCOCC3)cc2)c1-c1ccc2cc[nH]c2c1` [Pattern 2, 2-(1H-Indol-6-yl)-3-[4-(tetrahydro-pyran-4-yloxymethyl)-phenylethynyl]-benzoic acid], the “Grinding and vacuum drying at 55° C.: solvent content” value in data set [5] (1H NMR, 0.5 eq. toluene as prepared) is recorded as 0.3 eq. toluene. For the same compound, the “Grinding and vacuum drying at 55° C.: crystallinity” value in data set [5] (XRPD) is recorded as “significant loss of crystallinity; also recorded: Lower crystallinity”. For the same compound, the “Vacuum drying 40° C. or 55° C.” value in data set [5] (solid form and solvent content by XRPD or 1H NMR) is recorded as “Unchanged by XRPD”.

For the compound `O=C(O)c1cccc(C#Cc2ccc(COC3CCOCC3)cc2)c1-c1ccc2cc[nH]c2c1` [Pattern 3, 2-(1H-Indol-6-yl)-3-[4-(tetrahydro-pyran-4-yloxymethyl)-phenylethynyl]-benzoic acid], the “Storage at 40° C./75% RH for 3.5 days” value in data set [5] (40° C./75% RH, 3.5 days, XRPD and 1H NMR) is reported as “Unchanged by”.

On to `O=C(O)c1cccc(C#Cc2ccc(COC3CCOCC3)cc2)c1-c1ccc2cc[nH]c2c1` [Pattern 4, 2-(1H-Indol-6-yl)-3-[4-(tetrahydro-pyran-4-yloxymethyl)-phenylethynyl]-benzoic acid], for which, in data set [2] (40° C./75% RH, 7 days, solid form by XRPD), the “Storage at 40° C./75% RH for 7 days” value is listed as “Unchanged”.
